Measured values as given in patent US11046696B2, “Fused pyrimidine compound or salt thereof” (TAIHO PHARMACEUTICAL CO., LTD., priority 2016, dated 2021).

Experiment: Evaluation of stability in liver microsome
Settings: mouse liver microsome, 1 μM, 37° C. for 30 minutes
Method: Solutions of the test compounds in DMSO/acetonitrile (the final concentration of each test compound was 1 μM, the final concentration of DMSO was 0.01%, and the final concentration of acetonitrile was 1%) were individually added to a liver microsome mixture solution (mouse liver microsome with a final concentration of 0.25 mg/mL, a potassium phosphate buffer with a final concentration of 100 mM, and magnesium chloride with a final concentration of 3 mM), and each mixture was pre-incubated at 37° C. for 5 minutes. […] After incubation at 37° C. for 30 minutes, a double amount of ethanol was added thereto to terminate the reaction, thereby obtaining post-reaction samples. A double amount of ethanol was added to each of the remaining mixture solutions, and a NADPH-generating system was further added thereto, thereby obtaining pre-reaction samples. The pre-reaction samples and post-reaction samples were centrifuged at 2000×g, and their supernatant was filtered through a glass filter. Each filtrate was then introduced into LC-MS/MS, and MS/MS peaks of the test compounds were detected. From the ratio of the post-reaction MS/MS peak to the pre-reaction MS/MS peak of the test compounds, the percentage of the remaining test compounds (remaining %) was calculated.

First: Nc1ncnc2c1c(C(=O)Nc1ccc(Oc3ccccc3)cc1)cn2C1CCCC1 [Compound 2 of Comparative Examples, 4-amino-7-cyclopentyl-N-(4-phenoxyphenyl)-7H-pyrrolo[2,3-d]pyrimidine-5-carboxamide, reference compound]
Second: COCc1ccc(NC(=O)c2cn(C3(C4CC4)CC3)c3ncnc(N)c23)cc1 [Example 49, 7-{[1,1-bi(cyclopropane)]-1-yl}-4-amino-N-(4-(methoxymethyl)phenyl)-7H-pyrrolo[2,3-d]pyrimidine-5-carboxamide]
The “Remaining (%)” value of the first is lower: 0% for the first, 67% for the second.

Compared with `COCc1ccc(NC(=O)c2cn(C(C)(C)C)c3ncnc(N)c23)cc1` [Example 2, 4-amino-7-(tert-butyl)-N-(4-(methoxymethyl)phenyl)-7H-pyrrolo[2,3-d]pyrimidine-5-carboxamide], `[2H]C([2H])([2H])OCc1ccc(NC(=O)c2cn(C(C)(C)C)c3ncnc(N)c23)cc1` [Example 35, 4-amino-7-(tert-butyl)-N-(4-((methoxy-d3)-methyl)phenyl)-7H-pyrrolo[2,3-d]pyrimidine-5-carboxamide] is lower in “Remaining (%)” value: 64% for the first, 58% for the second.

First: COCc1ccc(NC(=O)c2cn(C(C)(C)CF)c3ncnc(N)c23)cc1 [Example 26, 4-amino-7-(1-fluoro-2-methylpropan-2-yl)-N-(4-(methoxymethyl)phenyl)-7H-pyrrolo[2,3-d]pyrimidine-5-carboxamide]
Second: COCc1ccc(NC(=O)c2cn(C(C)(C)C(F)F)c3ncnc(N)c23)cc1 [Example 50, 4-amino-7-(1,1-difluoro-2-methylpropan-2-yl)-N-(4-(methoxymethyl)phenyl)-7H-pyrrolo[2,3-d]pyrimidine-5-carboxamide]
The “Remaining (%)” value of the first is higher: 60% for the first, 53% for the second.

First: COCc1ccc(NC(=O)c2cn(C(C)(C)C)c3ncnc(N)c23)cc1F [Example 30, 4-amino-7-(tert-butyl)-N-(3-fluoro-4-(methoxymethyl)phenyl)-7H-pyrrolo[2,3-d]pyrimidine-5-carboxamide]
Second: COCc1ccc(NC(=O)c2cn(C(C)(C)CF)c3ncnc(N)c23)cc1F [Example 41, 4-amino-7-(1-fluoro-2-methylpropan-2-yl)-N-(3-fluoro-4-(methoxymethyl)phenyl)-7H-pyrrolo[2,3-d]pyrimidine-5-carboxamide]
The “Remaining (%)” value of the first is lower: 54% for the first, 56% for the second.

First: COCc1ccc(NC(=O)c2cn(C(C)(C)C)c3ncnc(N)c23)c(OC)c1 [Example 33, 4-amino-7-(tert-butyl)-N-(2-methoxy-4-(methoxymethyl)phenyl)-7H-pyrrolo[2,3-d]pyrimidine-5-carboxamide]
Second: COCc1ccc(NC(=O)c2c(C)n(C(C)(C)C)c3ncnc(N)c23)cc1 [Example 60, 4-amino-7-(tert-butyl)-N-(4-(methoxymethyl)phenyl)-6-methyl-7H-pyrrolo[2,3-d]pyrimidine-5-carboxamide]
The “Remaining (%)” value of the first is lower: 57% for the first, 81% for the second.

Going from `COCc1ccc(NC(=O)c2cn(C3(C)CC3)c3ncnc(N)c23)cc1` [Example 36, 4-amino-N-(4-(methoxymethyl)phenyl)-7-(1-methylcyclopropyl)-7H-pyrrolo[2,3-d]pyrimidine-5-carboxamide] to `COCc1ccc(NC(=O)c2cn(C3(CF)CC3)c3ncnc(N)c23)cc1` [Example 45, 4-amino-7-(1-(fluoromethyl)cyclopropyl)-N-(4-(methoxymethyl)phenyl)-7H-pyrrolo[2,3-d]pyrimidine-5-carboxamide], the “Remaining (%)” value falls from 73% to 66%.

Compared with `COCc1ccc(NC(=O)c2cn(C3(C(F)F)CC3)c3ncnc(N)c23)cc1` [Example 46, 4-amino-7-(1-(difluoromethyl)cyclopropyl)-N-(4-(methoxymethyl)phenyl)-7H-pyrrolo[2,3-d]pyrimidine-5-carboxamide], `COCc1ccc(NC(=O)c2c(F)n(C3(C)CC3)c3ncnc(N)c23)cc1` [Example 69, 4-amino-6-fluoro-N-(4-(methoxymethyl)phenyl)-7-(1-methylcyclopropyl)-7H-pyrrolo[2,3-d]pyrimidine-5-carboxamide] is higher in “Remaining (%)” value: 65% for the first, 69% for the second.

Compared with `COCc1ccc(NC(=O)c2cn(C3(C)CC3)c3ncnc(N)c23)cc1F` [Example 48, 4-amino-N-(3-fluoro-4-(methoxymethyl)phenyl)-7-(1-methylcyclopropyl)-7H-pyrrolo[2,3-d]pyrimidine-5-carboxamide], `COCc1ccc(NC(=O)c2c(Br)n(C3(C)CC3)c3ncnc(N)c23)cc1` [Example 55, 4-amino-6-bromo-N-[4-(methoxymethyl)phenyl]-7-(1-methylcyclopropyl)-7H-pyrrolo[2,3-d]pyrimidine-5-carboxamide] is lower in “Remaining (%)” value: 58% for the first, 56% for the second.

Compared with `COCc1ccc(NC(=O)c2c(Cl)n(C3(C)CC3)c3ncnc(N)c23)cc1` [Example 56, 4-amino-6-chloro-N-[4-(methoxymethyl)phenyl]-7-(1-methylcyclopropyl)-7H-pyrrolo[2,3-d]pyrimidine-5-carboxamide], `COCc1ccc(NC(=O)c2c(OC)n(C3(C)CC3)c3ncnc(N)c23)cc1` [Example 57, 4-amino-6-methoxy-N-[4-(methoxymethyl)phenyl]-7-(1-methylcyclopropyl)-7H-pyrrolo[2,3-d]pyrimidine-5-carboxamide] is higher in “Remaining (%)” value: 62% for the first, 86% for the second.

Going from `COCc1ccc(NC(=O)c2c(-c3cccnc3)n(C3(C)CC3)c3ncnc(N)c23)cc1` [Example 61, 4-amino-N-(4-(methoxymethyl)phenyl)-7-(1-methylcyclopropyl)-6-(pyridin-3-yl)-7H-pyrrolo[2,3-d]pyrimidine-5-carboxamide] to `COCc1ccc(NC(=O)c2c(C#Cc3cccnc3)n(C3(C)CC3)c3ncnc(N)c23)cc1` [Example 94, 4-amino-N-[4-(methoxymethyl)phenyl]-7-(1-methylcyclopropyl)-6-(pyridin-3-ylethynyl)-7H-pyrrolo[2,3-d]pyrimidine-5-carboxamide], the “Remaining (%)” value falls from 81% to 60%.

Going from `COCc1ccc(NC(=O)c2c(C(C)=O)n(C3(C)CC3)c3ncnc(N)c23)cc1` [Example 64, 6-acetyl-4-amino-N-(4-(methoxymethyl)phenyl)-7-(1-methylcyclopropyl)-7H-pyrrolo[2,3-d]pyrimidine-5-carboxamide] to `C=Cc1c(C(=O)Nc2ccc(COC)cc2)c2c(N)ncnc2n1C1(C)CC1` [Example 65, 4-amino-N-(4-(methoxymethyl)phenyl)-7-(1-methylcyclopropyl)-6-vinyl-7H-pyrrolo[2,3-d]pyrimidine-5-carboxamide], the “Remaining (%)” value falls from 89% to 79%.

Compared with `CC(C)(C)n1cc(C(=O)Nc2ccc(-c3cc[nH]n3)cc2)c2c(N)ncnc21` [Example 80, N-(4-(1H-pyrazol-3-yl)phenyl)-4-amino-7-(tert-butyl)-7H-pyrrolo[2,3-d]pyrimidine-5-carboxamide], `COCc1ccc(NC(=O)c2c(C#CCC(C)(C)O)n(C3(C)CC3)c3ncnc(N)c23)cc1` [Example 86, 4-amino-6-(4-hydroxy-4-methylpent-1-yn-1-yl)-N-[4-(methoxymethyl)phenyl]-7-(1-methylcyclopropyl)-7H-pyrrolo[2,3-d]pyrimidine-5-carboxamide] is higher in “Remaining (%)” value: 50% for the first, 66% for the second.

Going from `COCc1ccc(NC(=O)c2c(C#CC3CCOCC3)n(C3(C)CC3)c3ncnc(N)c23)cc1` [Example 87, 4-amino-N-[4-(methoxymethyl)phenyl]-7-(1-methylcyclopropyl)-6-((tetrahydro-2H-pyran-4-yl)ethynyl)-7H-pyrrolo[2,3-d]pyrimidine-5-carboxamide] to `COCc1ccc(NC(=O)c2c(C#CCN3CCCC3)n(C3(C)CC3)c3ncnc(N)c23)cc1` [Example 88, 4-amino-N-[4-(methoxymethyl)phenyl]-7-(1-methylcyclopropyl)-6-(3-(pyrrolidin-1-yl)prop-1-yn-1-yl)-7H-pyrrolo[2,3-d]pyrimidine-5-carboxamide], the “Remaining (%)” value falls from 63% to 59%.

Compared with `COCc1ccc(NC(=O)c2c(OC[C@H]3CCCO3)n(C3(C)CC3)c3ncnc(N)c23)cc1` [Example 89, (R)-4-amino-N-[4-(methoxymethyl)phenyl]-7-(1-methylcyclopropyl)-6-((tetrahydrofuran-2-yl)methoxy)-7H-pyrrolo[2,3-d]pyrimidine-5-carboxamide], `COCc1ccc(NC(=O)c2c(OC[C@@H]3CCCO3)n(C3(C)CC3)c3ncnc(N)c23)cc1` [Example 97, (S)-4-amino-N-(4-(methoxymethyl)phenyl)-7-(1-methylcyclopropyl)-6-((tetrahydrofuran-2-yl)methoxy)-7H-pyrrolo[2,3-d]pyrimidine-5-carboxamide] is higher in “Remaining (%)” value: 69% for the first, 70% for the second.

`COCc1ccc(NC(=O)c2c(C#Cc3cnn(C)c3)n(C3(C)CC3)c3ncnc(N)c23)cc1` [Example 90, 4-amino-N-[4-(methoxymethyl)phenyl]-6-((1-methyl-1H-pyrazol-4-yl)ethynyl)-7-(1-methylcyclopropyl)-7H-pyrrolo[2,3-d]pyrimidine-5-carboxamide] and `COCc1ccc(NC(=O)c2c(C#Cc3ccn(C)n3)n(C3(C)CC3)c3ncnc(N)c23)cc1` [Example 92, 4-amino-N-(4-(methoxymethyl)phenyl)-6-((1-methyl-1H-pyrazol-3-yl)ethynyl)-7-(1-methylcyclopropyl)-7H-pyrrolo[2,3-d]pyrimidine-5-carboxamide] are the same in “Remaining (%)” value: 67% for the first, 67% for the second.

First: COCc1ccc(NC(=O)c2c(C#Cc3cnc4cccnn34)n(C3(C)CC3)c3ncnc(N)c23)cc1 [Example 91, 4-amino-6-(imidazo[1,2-b]pyridazin-3-ylethynyl)-N-[4-(methoxymethyl)phenyl]-7-(1-methylcyclopropyl)-7H-pyrrolo[2,3-d]pyrimidine-5-carboxamide]
Second: COCc1ccc(NC(=O)c2c(C#Cc3cncn3C)n(C3(C)CC3)c3ncnc(N)c23)cc1 [Example 93, 4-amino-N-(4-(methoxymethyl)phenyl)-6-((1-methyl-1H-imidazol-5-yl)ethynyl)-7-(1-methylcyclopropyl)-7H-pyrrolo[2,3-d]pyrimidine-5-carboxamide]
The “Remaining (%)” value of the first is higher: 65% for the first, 53% for the second.

With `COCc1ccc(NC(=O)c2c(OC[C@@H](C)OC)n(C3(C)CC3)c3ncnc(N)c23)cc1` [Example 96, (R)-4-amino-N-(4-(methoxymethyl)phenyl)-6-(2-methoxypropoxy)-7-(1-methylcyclopropyl)-7H-pyrrolo[2,3-d]pyrimidine-5-carboxamide] the “Remaining (%)” value was 71%.
